From patent US10736883B2, “Triazole furan compounds as agonists of the APJ receptor” (AMGEN INC., priority 2016, dated 2020) come the findings set out here.

This assay deals with APJ receptor (Homo sapiens (Human), UniProt P35414). In words: [35S]GTPγS binding assay on membranes from CHO cells stably expressing human APJ receptor. It counts as biochemical. The conditions noted are these: membranes of CHO cells stably expressing human APJ receptor, means of several independent experiments, read-out: Activity hAPJ SPA EC50 IP. An outline of the steps: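 Membranes from CHO cells stably expressing human APJ were incubated with 0.2 nM [35S]GTPγS and ligands for 90 min at RT in 20 mM HEPES pH 7.5, 5 mM MgCl2, 200 mM NaCl, 3 μM GDP, 0.1% BSA with WGA PS beads. Nonspecific binding was set with 100 μM GTPγS. EC50 came from non-linear regression.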
Chain of APJ receptor (P35414 whole entry): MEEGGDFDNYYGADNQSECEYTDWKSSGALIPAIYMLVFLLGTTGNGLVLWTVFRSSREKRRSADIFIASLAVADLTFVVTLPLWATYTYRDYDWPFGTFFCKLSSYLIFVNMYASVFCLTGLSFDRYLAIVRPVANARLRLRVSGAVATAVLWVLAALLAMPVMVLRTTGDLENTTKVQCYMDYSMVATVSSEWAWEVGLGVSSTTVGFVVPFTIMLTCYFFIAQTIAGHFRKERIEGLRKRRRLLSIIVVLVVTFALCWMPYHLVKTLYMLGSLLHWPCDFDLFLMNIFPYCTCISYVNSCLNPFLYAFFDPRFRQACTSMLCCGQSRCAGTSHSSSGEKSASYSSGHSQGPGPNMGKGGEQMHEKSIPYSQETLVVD
A general note: Binding of GTPγS marks nucleotide exchange on a G protein.

Regarding `COc1cccc(OC)c1-n1c(NS(=O)(=O)[C@H](C)[C@H](O)c2cscn2)nnc1-c1ccc(C)o1` (single isomer, unassigned) [Example 298.0, (1R,2R)—N-(4-(2,6-Dimethoxyphenyl)-5-(5-methyl-2-furanyl)-4H-1,2,4-triazol-3-yl)-1-hydroxy-1-(1,3-thiazol-4-yl)-2-propanesulfonamide or (1S,2S)—N-(4-(2,6-dimethoxyphenyl)-5-(5-methyl-2-furanyl)-4H-1,2,4-triazol-3-yl)-1-hydroxy-1-(1,3-thiazol-4-yl)-2-propanesulfonamide], the EC50 turned out to be 11 nM.
`CCO[C@@H](c1ncc(C)cn1)[C@H](C)S(=O)(=O)Nc1nnc(-c2ccc(C)o2)n1-c1c(OC)cccc1OC` (single isomer, unassigned) [Example 117.0, (1S,2S)-N-(4-(2,6-dimethoxyphenyl)-5-(5-methylfuran-2-yl)-4H-1,2,4-triazol-3-yl)-1-ethoxy-1-(5-methylpyrimidin-2-yl)propane-2-sulfonamide or (1R,2R)-N-(4-(2,6-dimethoxyphenyl)-5-(5-methylfuran-2-yl)-4H-1,2,4-triazol-3-yl)-1-ethoxy-1-(5-methylpyrimidin-2-yl)propane-2-sulfonamide]: the EC50 was found to be 0.061 nM.
As to `COc1ncnc(OC)c1-n1c(NS(=O)(=O)[C@@H](C)[C@H](C)c2ncc(C#N)cn2)nnc1-c1ccc(C)o1` [Example 397.0, (2S,3R)-3-(5-Cyano-2-pyrimidinyl)-N-(4-(4,6-dimethoxy-5-pyrimidinyl)-5-(5-methyl-2-furanyl)-4H-1,2,4-triazol-3-yl)-2-butanesulfonamide], the 50% effective concentration (EC50) was 0.51 nM.
`COc1cccc(OC)c1-n1c(NS(=O)(=O)[C@@H](C)[C@@](C)(O)c2ccc(C#N)cn2)nnc1-c1ccc(C)o1` (single isomer, unassigned) [Example 227.0]: the concentration giving a half-maximal response (EC50) was found to be 0.35 nM.
On to `COc1cccc(OC)c1-n1c(NS(=O)(=O)[C@@H]2C[C@H]2c2ccc(Cl)cc2)nnc1-c1ccco1` (single isomer, unassigned) [Example 192.0, (1R,2S)-2-(4-Chlorophenyl)-N-(4-(2,6-dimethoxyphenyl)-5-(2-furanyl)-4H-1,2,4-triazol-3-yl)cyclopropanesulfonamide or (1S,2R)-2-(4-chlorophenyl)-N-(4-(2,6-dimethoxyphenyl)-5-(2-furanyl)-4H-1,2,4-triazol-3-yl)cyclopropanesulfonamide], for which the concentration for a half-maximal effect (EC50) came to 2.8 nM.
`COc1cccc(OC)c1-n1c(NS(=O)(=O)CCc2ccc(F)cc2C#N)nnc1-c1ccc(C(F)(F)F)o1` [Example 131.0, 2-(2-Cyano-4-fluorophenyl)-N-(4-(2,6-dimethoxyphenyl)-5-(5-(trifluoromethyl)furan-2-yl)-4H-1,2,4-triazol-3-yl)ethanesulfonamide]: the half-maximal effective concentration (EC50) was 3.9 nM.
In the case of `COc1cccc(OC)c1-n1c(NS(=O)(=O)C[C@@](C)(O)c2ncc(C#N)cn2)nnc1-c1ccc(C)o1` (single isomer, unassigned) [Example 248.0, (2S)-2-(5-Cyano-2-pyrimidinyl)-N-(4-(2,6-dimethoxyphenyl)-5-(5-methyl-2-furanyl)-4H-1,2,4-triazol-3-yl)-2-hydroxy-1-propanesulfonamide or (2R)-2-(5-cyano-2-pyrimidinyl)-N-(4-(2,6-dimethoxyphenyl)-5-(5-methyl-2-furanyl)-4H-1,2,4-triazol-3-yl)-2-hydroxy-1-propanesulfonamide] it was 1.6 nM; in that of `CCc1ccc(-c2nnc(NS(=O)(=O)[C@@H](C)Cc3ncc(F)cn3)n2-c2c(OC)cccc2OC)o1` (single isomer, unassigned) [Example 97.0, (2S)—N-(4-(2,6-Dimethoxyphenyl)-5-(5-ethyl-2-furanyl)-4H-1,2,4-triazol-3-yl)-1-(5-fluoro-2-pyrimidinyl)-2-propanesulfonamide or (2R)—N-(4-(2,6-dimethoxyphenyl)-5-(5-ethyl-2-furanyl)-4H-1,2,4-triazol-3-yl)-1-(5-fluoro-2-pyrimidinyl)-2-propanesulfonamide], 0.4 nM.

What is called EC50 is the midpoint of the concentration-response curve.
